Patent publication US5075287A, “Muramyl peptide derivatives and immunoregulating compositions containing them” (priority 1989, dated 1991)
Read-outs that look alike come from different tables or passages of the source.

Columns and labels:
[1] = test system: hepatitis B virus surface antigen (HBs); assay: Hepatitis-vaccine enhancing activity (adjuvant activity): anti-HBs IgG in mouse serum by ELISA; type: in vivo, female CDF1 mice; conditions: Experiment 1, 5000-fold dilution
Method: A compound of the present invention was dissolved in lipidmicrosphere (1 mg/ml). On the other hand, a solution of hepatitis B virus surface antigen (HBs) in physiological saline was prepared (50 μg/ml). The above solutions in equal amounts were mixed to prepare a test solution. A control solution was prepared by the exclusion of the compound of the present invention from said test solution. A mixture of a suspension of aluminium hydroxide gel in physiological saline (1 mg/ml) and said hepatitis vaccine preparation in equal amounts was prepared as another control solution. The test solution (0.2 ml) was intraperitoneally administered to each mouse in one group consisting of seven female CDF1 mice.
Blood samples were collected from the fundus ocluli vein of each mouse every week after the administration and then centrifuged to obtain serums. Three weeks after the administration, 0.2 ml of the test liquid was intraperitoneally administered again to each mouse for secondary stimulation. Then blood collecting was conducted every week to obtain serums after the application of the secondary stimulation, in the same manner as that described above.
The amount of the IgG antibodies against the hepatitis B virus surface antigens (HBs) in the serums thus obtained was determined with an ELISA method.

[2] = test system: L-1210 mouse leukemia cells; assay: Activation of macrophages (growth inhibition of tumor cells by intraperitoneal macrophages of treated mice, MTT assay); type: cell-based; conditions: macrophages taken 3 days after i.p. 0.2 ml of 500 μg/ml, macrophage:L-1210 20:1, 72 hours
Method: A compound of the present invention was dissolved in lipidmicrosphere to obtain a solution in a concentration of 500μg/ml, and 0.2 ml of such solution was intraperitoneally administered to each mouse in one group consisting of seven female CDF1 mice. Intraperitoneal macrophages obtained three days after the administration and L-1210 mouse leukemia cells were mixed in the ratio of cell numbers of 20:1, respectively. Two hundred μl of the mixture was placed in each well of one sheet of 96 well microtiter plate. After 72 hours, the increase of the cell number in each well was determined by a MTT assay method. The ratio of the cell number for the mixture of the L-1210 cells and the macrophage relative to the cell number for the L-1210 cells only(growth inhibitory ratio) was determined, and the results are shown in Table 3.

[3] = test system: influenza HA vaccine (B/Nagasaki/1/87 strain); type: in vivo, female CDF1 mice; conditions: Experiment 1, 5000-fold dilution
[4] = 1 W after i.p. administration, compound in lipidmicrosphere + HBs
[5] = 4 W (after secondary stimulation at 3 weeks)
[6] = 5 W (after secondary stimulation at 3 weeks)
[7] = 1 W after i.p. administration, compound in lipidmicrosphere + HA vaccine

| SMILES | Anti-HBs IgG antibody level in serum (ELISA absorbance at 415 nm) [1, 4] [O.D 415 nm] | Anti-HBs IgG antibody level in serum (ELISA absorbance at 415 nm) ([1]; 2 W) [O.D 415 nm] | Anti-HBs IgG antibody level in serum (ELISA absorbance at 415 nm) ([1]; 3 W) [O.D 415 nm] | Anti-HBs IgG antibody level in serum (ELISA absorbance at 415 nm) [1, 5] [O.D 415 nm] | Anti-HBs IgG antibody level in serum (ELISA absorbance at 415 nm) [1, 6] [O.D 415 nm] | Growth inhibitory ratio of L-1210 mouse leukemia cells [2] [%] | Anti HA serum antigen value (average value ± S.D.) [3, 7] [O.D 415 nm] | Anti HA serum antigen value (average value ± S.D.) ([3]; 2 W) [O.D 415 nm] | Anti HA serum antigen value (average value ± S.D.) ([3]; 3 W) [O.D 415 nm] | Anti HA serum antigen value (average value ± S.D.) [3, 5] [O.D 415 nm] | Anti HA serum antigen value (average value ± S.D.) [3, 6] [O.D 415 nm] |
| --- | --- | --- | --- | --- | --- | --- | --- | --- | --- | --- | --- |
| CCCCCCCCCCCCCC(=O)O[C@H](CCCCCCCCCCC)CC(=O)S[C@@H]1O[C@H](CO)[C@@H](O)[C@H](O[C@H](C)C(=O)N[C@@H](C)C(=O)N[C@H](CCC(=O)OC)C(N)=O)[C@H]1NC(C)=O [Example 4, N-[2-0-{2-Acetamido-2,3-dideoxy-1-S-[[3R)-3-tetradecanoyloxytetradecanoyl)-1-thio-β-D-glucopyranos-3-yl}-D-lactoyl]-L-alanyl-D-isoglutamine methylester] | 0 | 0.073 ± 0.001 | 0.111 ± 0.007 | 0.848 ± 0.009 | 0.935 ± 0.022 | 45.2 | 0.004 ± 0.001 | 0.215 ± 0.001 | 0.381 ± 0.004 | 1.204 ± 0.012 | 1.150 ± 0.016 |
| CCCCCCCCCCCCCCC(CCCCCCCCCCCCCC)C(=O)O[C@H]1O[C@H](COC(=O)CCCCCCCCC)[C@@H](O)[C@H](O[C@H](C)C(=O)N[C@@H](C)C(=O)N[C@H](CCC(=O)OC)C(N)=O)[C@H]1NC(C)=O [Example 5] | 0.001 ± 0.001 | 0.021 ± 0.001 | 0.048 ± 0.001 | 0.643 ± 0.013 | 0.490 ± 0.009 | 57.8 | 0 | 0.091 ± 0.002 | 0.377 ± 0.001 | 1.037 ± 0.027 | 1.068 ± 0.004 |
| CCCCCCCCCCCCCCC(CCCCCCCCCCCCCC)C(=O)O[C@H]1O[C@H](COC(=O)CCCCCCCCCCCCC)[C@@H](O)[C@H](O[C@H](C)C(=O)N[C@@H](C)C(=O)N[C@H](CCC(=O)OC)C(N)=O)[C@H]1NC(C)=O [Example 6, N-[2-0-{2-Acetamido-2,3-dideoxy-6-0-tetradecanoyl-1-0-(2-tetradecylhexadecanoyl)-α-D-glucopyranos-3-yl}-D-lactoyl]-L-alanyl-D-isoglutamine methylester] | 0 | 0.020 ± 0.002 | 0.069 ± 0.001 | 0.477 ± 0.005 | 0.529 ± 0.005 | 63.0 | 0.001 ± 0.001 | 0.013 ± 0.002 | 0.259 ± 0.004 | 1.025 ± 0.013 | 1.159 ± 0.013 |
| CCCCCCCCCCCCCCCCCC(=O)OC[C@H]1O[C@H](OC(=O)C(CCCCCCCCCCCCCC)CCCCCCCCCCCCCC)[C@H](NC(C)=O)[C@@H](O[C@H](C)C(=O)N[C@@H](C)C(=O)N[C@H](CCC(=O)OC)C(N)=O)[C@@H]1O [Example 7, N-[2-0-{2-Acetamido-2,3-dideoxy-6-0-octadecanoyl-1-0-(2-tetradecylhexadecanoyl)-α-D-glucopyranos-3-yl}-D-lactoyl]-L-alanyl-D-isoglutamine methylester] | 0 | 0.016 ± 0.003 | 0.071 ± 0.004 | 0.426 ± 0.000 | 0.470 ± 0.010 | 90.2 | 0.001 ± 0.001 | 0.112 ± 0.003 | 0.286 ± 0.001 | 1.039 ± 0.010 | 1.128 ± 0.026 |
| CCCCCCCCCCCCCCC(CCCCCCCCCCCCCC)C(=O)S[C@@H]1O[C@H](COC(=O)CCCCCCCCC)[C@@H](O)[C@H](O[C@H](C)C(=O)N[C@@H](C)C(=O)N[C@H](CCC(=O)OC)C(N)=O)[C@H]1NC(C)=O [Example 8, N-[2-0-{2-Acetamido-2,3-dideoxy-6-0-decanoyl-1-S-(2-tetradecylhexadecanoyl)-1-thio-β-D-glucopyranos-3--yl}-D-lactoyl]-L-alanyl-D-isoglutamine methylester] | 0 | 0.067 ± 0.003 | 0.114 ± 0.002 | 0.897 ± 0.012 | 0.845 ± 0.016 | 57.9 | 0.001 ± 0.001 | 0.105 ± 0.005 | 0.246 ± 0.004 | 1.246 ± 0.019 | 1.267 ± 0.023 |
| CCCCCCCCCCCCCCC(CCCCCCCCCCCCCC)C(=O)S[C@@H]1O[C@H](COC(=O)CCCCCCCCCCCCC)[C@@H](O)[C@H](O[C@H](C)C(=O)N[C@@H](C)C(=O)N[C@H](CCC(=O)OC)C(N)=O)[C@H]1NC(C)=O [Example 9, N-[2-0-{2-Acetamido-2,3-dideoxy-6-0-tetradecanoyl-1-S-(2-tetradcylhexadecanoyl)-1-thio-β-D-glucopyranos-3-yl}-D-lactoyl]-L-alanyl-D-isoglutamine methylester] | 0.014 ± 0.002 | 0.092 ± 0.003 | 0.149 ± 0.001 | 0.681 ± 0.012 | 0.702 ± 0.006 | 58.5 | 0.019 ± 0.002 | 0.168 ± 0.005 | 0.392 ± 0.006 | 1.342 ± 0.005 | 1.329 ± 0.026 |
| CCCCCCCCCCCCCCCCCC(=O)OC[C@H]1O[C@@H](SC(=O)C(CCCCCCCCCCCCCC)CCCCCCCCCCCCCC)[C@H](NC(C)=O)[C@@H](O[C@H](C)C(=O)N[C@@H](C)C(=O)N[C@H](CCC(=O)OC)C(N)=O)[C@@H]1O [Example 10, N-[2-0-{2-Acetamido-2,3-dideoxy-6-0-octadecanoyl-1-S-(2-tetradecylhexadecanoyl)-1-thio-β-D-glucopyranos-3-yl}-D-lactoyl]-L-alanyl-D-isoglutamine methylester] | 0 | 0.061 ± 0.002 | 0.114 ± 0.003 | 0.778 ± 0.024 | 0.878 ± 0.009 | 76.6 | 0.005 ± 0.001 | 0.153 ± 0.003 | 0.280 ± 0.000 | 1.149 ± 0.018 | 1.203 ± 0.014 |
